Assay results as given in a melting point compilation (Tetko et al.; mined from patent text by program, amines drawn as free bases though some values may be those of a salt).

melting point	Structure (SMILES)
102 to 105 °C	Cc1ccc2cc(NC(=O)c3cccc(SCc4cnccn4)c3)ccc2n1
226 to 230 °C	CC1(O)c2ccccc2C=C(Br)c2ccncc21 (stereo not given)
139 to 140 °C	CC(=O)C(=Cc1cccc([N+](=O)[O-])c1)P(=O)(OCC(C)(C)C)OCC(C)(C)C
173 to 175 °C	CN1C(=O)c2ccccc2C[C@H]1C(=O)O
82.5 to 83 °C	CC(Br)C(=O)c1cc([N+](=O)[O-])cs1 (stereo not given)
160 to 161 °C	O=C1NC(=O)C(Cc2ccc(OCCON=Cc3cncc(-c4ccccc4)c3)cc2)S1 (stereo not given)
204 to 209 °C	N#Cc1cccc(C2=Nc3ccc(C4CC4)cc3NC(=O)C2)c1
80 to 82 °C	CCCCCCCCCCCCOCC(COCCCCCCCCCCCC)(CC(=O)O)CC(=O)O
190 °C	CC(=O)NC(=C(C)C(=O)O)c1ccccc1
218 to 219 °C	N#Cc1c(-c2cccc(C(=O)NCCO)c2)cc(-c2ccccc2O)nc1NC(=O)c1cccs1
150 to 152 °C	CC(C)c1ccc(S(=O)(=O)c2ccccc2)cc1S(=O)(=O)NC1CCN(C(=O)c2ccc(C(C)(C)C)cc2)CC1
95 °C	CCCCc1cc(C)cc(=O)[nH]1
104 to 105 °C	COc1cc(COc2nn(Cc3ccccc3)cc2CO)ccc1OCc1nc(-c2ccco2)oc1C
166 to 168 °C	CCOCc1nc(N)c2nc(C)cnc2n1
163 to 167 °C	O=S(=O)(c1ccccc1)n1ccc2c(Cl)ncnc21
89 to 90 °C	COC(=O)C(O)C(CC(C)C)NCc1ccccc1 (stereo not given)
55 to 56 °C	CCCCCCCCCCCCCCOc1ccc(C(=O)C(Br)c2ccc([N+](=O)[O-])cc2)cc1 (stereo not given)
351 to 355 °C	O=c1[nH]ncc2c(O)cccc12
197 to 198 °C	Cc1csc(NC(=O)C2(CN3CCN(c4nc(C)cs4)C3=O)C=CC=CC2)n1 (stereo not given)
37 °C	CSCCC(CS)NC(=O)OC(C)(C)C (stereo not given)
73 to 74 °C	CCOC(=O)C(=O)N(c1ccccc1[N+](=O)[O-])C(C)(C)C
262 to 264 °C	CC(=C1SC(=O)NC1=O)c1ccc(OCCCOc2c(-c3ccc(F)cc3)n(C)c3ccccc3c2=O)cc1
63 to 65 °C	C[C@@H](N1CCN(C(=O)c2ccc(F)cc2F)CC1)[C@](O)(Cn1cncn1)c1ccc(F)cc1F

melting point	Structure (SMILES)
105 to 108 °C	CCCCOC(=O)NC1C(=O)N(OCC(=O)OC(c2ccccc2)c2ccccc2)C1C (stereo not given)
76 to 78 °C	CCN(C(=O)c1ccccc1[Si](C)(C)C)C(OC)C(C)(C)C (stereo not given)
53 °C	c1ccc(N=C2CCCc3ccccc32)cc1
296 to 297 °C	COc1cc2c(c([N+](=O)[O-])c1O)C(=O)c1ccccc1C2=O
100 °C	Nc1ccc(Oc2ccc3sncc3c2)cc1
135 °C	O=C(O)[C@@H]1OC(c2ccccc2)=N[C@H]1c1ccccc1
175 °C	Nc1c(Cl)cc(C(=O)NC2CCN(CC3CCCO3)CC2)c2c1CCO2 (stereo not given)
195 to 197 °C	CC(C)(C)N(Cc1ccccc1)C(=O)C=c1sc2n(c1=O)Cc1ccccc1N=2
119 to 120 °C	CC(C)c1cc2ncnn2nc1OCCOCCN1CCN(C(c2ccccc2)c2ccccc2)CC1
137 to 139 °C	CCCCc1nn(-c2cccc(N)c2)c(=O)n1Cc1ccc(-c2ccccc2S(=O)(=O)NC(=O)c2ccccc2Cl)cc1
184 to 185 °C	O=C(CNc1ccccc1)Nc1c(Cl)cccc1C(=O)O
187 to 189 °C	CCOCc1nc2c(N)nc3cc(-c4ccsc4)ccc3c2n1CC(C)C
131 to 133 °C	Fc1ccc(CN2CCCC(Nc3nccc(-c4c(-c5ccc(F)cc5)nc5sccn45)n3)C2)cc1 (stereo not given)
312 to 315 °C	Cc1cc2c(=O)n3cc(C(=O)O)ccc3nc2s1
87 °C	NC(=O)C(=O)CCCCl
78 °C	CN1CCN(CCOc2ccccc2CC(=O)N2C[C@@H]3C(=O)CCC(c4ccccc4)(c4ccccc4)[C@@H]3C2)CC1 (racemic)
153 to 155 °C	NC(=O)c1cccc(Oc2ncccc2C(=O)NCc2ccccc2Cl)c1
135 to 137 °C	CON(Cc1nc2c(N)nc(C)c(C)c2n1CC(C)C)C(=O)C1CC1
160 to 161 °C	CCOC(=O)C1=CC2(CCC1S(=O)(=O)Nc1ccc(F)cc1Cl)SCCS2 (stereo not given)
55 to 56 °C	CCN(CC)C(=O)c1cccc(OC)c1-c1ccccc1
225 to 228 °C	Cc1cc(C2C(=O)Oc3c2cc(C(C)(C)C)cc3C(C)(C)C)cc(C)c1O (stereo not given)
271 to 272 °C	CS(=O)(=O)c1cnc(NC(=O)c2cccc(O)c2)s1
126 to 129 °C	CC(C)(C)OC(=O)N1CCN(Cc2ccccc2)C(=S)C1

melting point	Structure (SMILES)
133 to 135 °C	CCOc1cccc(-c2cn(C)cc(-c3ccccc3)c2=O)c1
292 °C	CCN(CC)c1ccc2c(c1)O/C(=C1/Oc3cc(N(CC)CC)ccc3C1=O)C2=O
> 300 °C	O=C(O)c1c2c(nc3ccc(F)cc13)-c1cc(F)c(-c3ccc(F)cc3)cc1CCC2
219 to 231 °C	O=C(O)c1cnc2c3ccccc3ccn2c1=O
234 to 236 °C	Cc1nn2c(c1C(N)=O)NCCC2
119 to 121 °C	O=C1NC(=O)C(Cc2ccc(C(=O)CCc3ccccc3)cc2)S1 (stereo not given)
141 to 144 °C	CCc1nc2c(C)cc(C)nc2n1Cc1ccc(C(=C(c2nnn[nH]2)S(C)=O)c2ccccc2)cc1 (stereo not given)
122 to 124 °C	CSc1nccc(C)c1NC(=O)CCCCCSc1nc2ccccc2o1
274 °C	Cc1cc(Nc2nc(-c3ccc(Cl)c(Cl)c3)nc3ccccc23)[nH]n1
167 to 168 °C	CCOC(=O)CN(C)C1CCCN(C(=O)c2ccc(NC(=O)c3ccccc3C)cc2)c2ccccc21 (stereo not given)
74 to 76 °C	CC(C)(C)C(=O)Nc1ccccn1
90 to 91 °C	Cc1ccc(S(=O)(=O)N2CCCC2CO)cc1 (stereo not given)
61 to 62 °C	CCCCCCCCCCCCCCCCSCC(O)COC(c1ccccc1)(c1ccccc1)c1ccccc1 (stereo not given)
154 to 155 °C	O=C(N[C@H](Cc1ccccc1)[C@H](O)C(=O)O)OCc1ccccc1
155 to 156 °C	COc1cccc(COc2ccc3oc(-c4nc(C(C)(C)C)cs4)cc3c2)c1OC(C)C(N)=O (stereo not given)
188 to 193 °C	OC1COc2ccccc2C1 (stereo not given)
162 to 163 °C	Cc1sc(-n2nc(C(=O)O)nc2CCl)c(C(=O)c2ccccc2)c1C
138 to 139 °C	COC(=O)c1c(Cl)nc(N2CCC(O)CC2)nc1NCc1ccc(OC)c(Cl)c1
204 to 207 °C	O=C(N[C@H](Cc1ccc(F)cc1)C(=O)N1CCC(O)CC1)c1cc2ccccc2[nH]1
160 to 163 °C	Cc1ccc(S(=O)(=O)OCCCCn2c3c(c4ccccc4c2=O)C(=O)c2ccccc2-3)cc1
167 to 170 °C	CCOc1cc2c(cc1OC)C(c1ccc(-c3nnn(CC)n3)cc1)=N[C@H]1CCCC[C@@H]21 (racemic)

Structure (SMILES)	melting point
O=C(Nc1cnc2cc[nH]c2c1)c1cc2cc(F)ccc2n1Cc1cccc(F)c1	277 to 278 °C
O=c1[nH]c(C2CCNCC2)nc2ccccc12	244 to 245 °C
COC1CCC2(C)C(=CC(=O)C3C2CCC2(C)C(OC(C)=O)CCC32)C1 (stereo not given)	168 to 170 °C
